These results are taken from article PMC12615753, “Glutathione as a taste modulator: molecular mechanisms of interaction with umami and sweet taste receptors” (Food Chemistry: Molecular Sciences, 2025).

This experiment addresses T1, hTAS1R1 D147A/rTAS1R3 (UniProt Q7RTX1+Q923K1, D147A).
T1 construct: UniProtKB number Q7RTX1–1); The cDNA coding region of rTAS1R3 was synthesized with optimized-codon usage for human expression; expressed in transfected cells; host or cells: HEK293T/17
T1 sequence (Q7RTX1 21-841 D147A): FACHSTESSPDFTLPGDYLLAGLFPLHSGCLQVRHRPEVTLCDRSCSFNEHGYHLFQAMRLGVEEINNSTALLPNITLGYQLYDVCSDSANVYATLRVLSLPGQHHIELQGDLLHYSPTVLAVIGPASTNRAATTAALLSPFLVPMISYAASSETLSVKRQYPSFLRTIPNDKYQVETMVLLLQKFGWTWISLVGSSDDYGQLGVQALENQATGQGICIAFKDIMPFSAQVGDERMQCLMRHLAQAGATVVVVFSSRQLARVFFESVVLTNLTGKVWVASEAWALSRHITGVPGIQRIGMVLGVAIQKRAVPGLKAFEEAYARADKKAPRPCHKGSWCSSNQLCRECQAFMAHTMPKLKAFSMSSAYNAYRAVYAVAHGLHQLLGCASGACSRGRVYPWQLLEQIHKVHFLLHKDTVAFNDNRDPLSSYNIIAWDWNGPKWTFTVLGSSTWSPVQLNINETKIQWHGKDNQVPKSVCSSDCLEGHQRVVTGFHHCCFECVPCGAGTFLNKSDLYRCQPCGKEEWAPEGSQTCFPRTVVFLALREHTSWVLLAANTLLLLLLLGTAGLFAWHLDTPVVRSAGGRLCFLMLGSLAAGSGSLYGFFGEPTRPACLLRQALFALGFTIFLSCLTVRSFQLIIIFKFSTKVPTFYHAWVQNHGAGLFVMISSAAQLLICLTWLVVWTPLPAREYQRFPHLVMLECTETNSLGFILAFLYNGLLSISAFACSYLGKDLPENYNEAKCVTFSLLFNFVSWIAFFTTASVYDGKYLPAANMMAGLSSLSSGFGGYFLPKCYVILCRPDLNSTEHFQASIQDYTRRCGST
T1 sequence (Q923K1 21-858): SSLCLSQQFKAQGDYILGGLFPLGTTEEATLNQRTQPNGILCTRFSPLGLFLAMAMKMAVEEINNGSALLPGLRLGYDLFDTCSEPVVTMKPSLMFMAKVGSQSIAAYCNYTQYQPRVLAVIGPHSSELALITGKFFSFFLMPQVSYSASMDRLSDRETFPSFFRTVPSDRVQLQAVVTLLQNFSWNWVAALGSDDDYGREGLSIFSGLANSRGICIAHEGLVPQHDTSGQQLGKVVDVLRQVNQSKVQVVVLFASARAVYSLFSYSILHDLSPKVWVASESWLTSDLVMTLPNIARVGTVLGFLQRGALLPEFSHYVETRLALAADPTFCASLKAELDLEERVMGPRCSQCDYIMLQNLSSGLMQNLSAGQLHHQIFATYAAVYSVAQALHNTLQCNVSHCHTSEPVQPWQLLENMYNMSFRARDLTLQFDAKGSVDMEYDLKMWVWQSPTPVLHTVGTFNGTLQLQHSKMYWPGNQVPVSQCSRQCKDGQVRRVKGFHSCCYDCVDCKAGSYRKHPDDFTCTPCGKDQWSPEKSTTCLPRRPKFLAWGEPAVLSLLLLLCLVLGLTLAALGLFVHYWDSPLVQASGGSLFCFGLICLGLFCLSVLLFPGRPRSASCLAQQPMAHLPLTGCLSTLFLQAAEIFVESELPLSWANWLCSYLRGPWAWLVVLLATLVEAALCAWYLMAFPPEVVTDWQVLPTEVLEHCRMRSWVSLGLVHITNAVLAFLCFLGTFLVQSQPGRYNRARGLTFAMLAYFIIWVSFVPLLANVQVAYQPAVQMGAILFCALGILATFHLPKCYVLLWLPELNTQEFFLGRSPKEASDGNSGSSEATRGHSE
Put plainly: Calcium assay, hTAS1R1 mutant co-expressed with rTAS1R3. The format is cell-based, human, rat.

What is called EC50 is the concentration giving half of the maximal effect. As for `N[C@@H](CCC(=O)N[C@@H](CS)C(=O)NCC(=O)O)C(=O)O` [GSH, γ-L-glutamyl-L-cysteinyl-glycine], the half-maximal effective concentration (EC50) is more than 30 mM. Where the note is “D147A”, the “effect of the added compound (1 mM) on the response to L-Glu” value was “did not affect” and the “response to the agonist alone, vs WT” value is given as “fully abolished”.
On to `CCCC(CCC)NC(=O)c1ccc2c(c1)OCO2` [S807, N-(heptan-4-yl)benzo[d][1,3]dioxole-5-carboxamide, reference compound], for which the “response to the agonist alone, vs WT” value (D147A) is “strongly affected”.
